Results reported in patent US11351156B2, “Combination treatment of pancreatic cancer” (INSERM (Institut National de la Santé et de la Recherche …, priority 2017, dated 2022).
Where two headings read alike, the source gives them in different places.

Experiments:
pAkt = assay: Western blot of Akt phosphorylation in serum-starved, inhibitor-pretreated, stimulated Capan-1 cells; format: cell-based, human; conditions: for pS473 and pT308Akt levels: Capan-1, after 10 min stimulation with serum
Protocol: Pancreatic cancer cell were cultured consistent conditions. Eight hours after plating of cells, they were serum-starved during 16 h, over-night. Cells were pre-treated with inhibitors or their accordingly diluted vehicle (DMSO) during 1 h, then stimulated or not for 10 min or 24 h with 2% FBS, for 10 min with […] EGF, 100 nM Insulin, 50 ng/ml IGF-1, 1 μM LPA, 30 ng/ml PDGF, 200 nM S1P, 1× amino acids or 2 g/l glucose.
Cells were harvested on ice, washed twice with cold PBS, collected, and frozen at −80° C.

[1] = system: serum-induced phosphopeptides in Capan-1 cells; assay: SILAC phosphoproteomics of Capan-1 cells under PI3K inhibition; format: cell-based, human
Protocol: Light amino acid-labelled and heavy amino acid-labelled Capan-1 cells (respectively called thereafter “light” and “heavy” cells) were washed twice with phosphate buffer saline (PBS; SIGMA; D8537), trypsined (GE Healthcare; L11-002) and plated at a concentration of 2.5.10^6 cells in a 14.4 cm-diameter dish (Dutscher, 055063). After 48 h, cells were serum-starved during 16 h, over-night. Light and heavy cells were pre-treated respectively with inhibitors or their accordingly diluted vehicule (DMSO) during 1 h, then stimulated or not for 10 min or 24 h with 2% dialysed FBS. After 10 min and 24 h of FBS stimulation, heavy cells and light cells were maintained on ice, washed three times with cold PBS and lysed.
Cells were lysed on the plate with 2 mL of lysis buffer (Tris-HCl 100 mM-pH 7.8 (Sigma, T1503), SDS 1% (Sigma, L3771), EDTA 5 mM-pH7.8 (Euromedex, EU-0007-B), proteases and phosphatases inhibitors (Sigma) containing 1× cOmplete Roche proteases inhibitors cocktail (SIGMA, 04693132001), NaF 10 mM (Sigma, S1504), NaPPi 10 mM (Sigma, S6422) and Na3VO4 10 mM (Sigma, 450243)) during 30 min at 4° C. in dark. Cells were scraped, harvested and incubated 20 min at 57° C. To eliminate DNA-dependent viscosity, samples were sonicated (amplitude 40%, pulse 1 sec, interval 1 sec during 60 sec). Three other lysis buffers were also tested (Buffer 1: NH4HCO3 100 mM pH7.8, Urea 8M; Buffer 2: Tris-HCl 100 mM pH7.8, Urea 8M; Buffer 3/RIPA: Tris-HCl50 mM, NaCl 150 mM, Nonidet P-40 1% pH 7.8, SDS 0.1% (w/v)); the chosen buffer allowed the better extraction of phospho-tyrosine proteins as assessed by Western blotting with anti-pY (p-Tyr100) antibody (Cell Signaling Technology; 8954S) as compared to in gel 1-DE profile. Cell lysates were then cleared from insoluble fraction by centrifugation at 10,000×g for 15 min at 25° C., and protein concentration was measured by 2-D Quant kit (GE Healthcare, 80-6483-56). For each biological replicate, light and heavy lysates were mixed at a 1:1 ratio for a total amount of 6 mg.
Protein samples were reduced with 100 mM DTT (Sigma, D9163) for 35 min at 57° C. and then handled according to the FASP (Filter Aided Sample Preparation) digestion protocol using Amicon Ultra-15 Centrifugal Filter device (10 kDa cut-off, MILLIPORE, UFC901096). The 1st step consisted in the replacement of SDS by urea, then a dilution with UA buffer (Tris-HCl100 mM-pH 8.5, Urea 8M (Sigma, U5128)) and an alkylation with CAA solution (Tris-HCl 100 mM pH 8.5, Urea 8M, Chloroacetamide 50 mM (Sigma, CO267)). For optimization of trypsin efficiency, urea concentration was decreased at 200 mM with Ammonium Bicarbonate buffer (NH4HCO3 0.05M (SIGMA, 09830) and 10 mM phosphatase inhibitors as previously used in lysis buffer). In a 2nd step, Trypsin (Promega, V5117) digestion was performed at 1:50 (w/w) trypsin:protein ratio overnight at 37° C. on the Amicon Ultra-15 Centrifugal Filter. Tryptic peptides were acidified with 1% trifluoroacetic acid (TFA—Sigma, T6508), cleared at 5,000 rpm for 15 minutes at 15° C., and desalted using C18 Sep-Pak plus cartridges (Waters, WAT043395, 500 mg sorbent). Resin was conditioned with 15 mL in 80% Acetonitrile (ACN—Sigma, 34888) then equilibrated with 15 mL in 0.1% TFA. After the loading step, sample was washed with 15 mL in 0.1% TFA, and the elution was performed with 4 mL in 80% ACN, 0.1% TFA). Eluted peptides were lyophilized with a speed-vacuum over night.
Protocol for the enrichment with TiO2 beads is based on Larsen et al., [45] and Jensen et al.. […]

[2] = system: KPC mouse model that rapidly develops PDAC; conditions: cited from earlier work; for tumour progression / tumour size: 12-week old KPC mice, 7 day-treated; for murine lethality / survival: treatment started at 8 weeks of age
KPC pancreatic tumour = conditions: cited from earlier work
[3] = system: primary patient-derived PDAC cells; conditions: mouse, in vivo; cited from earlier work
[4] = system: BxPC-3 cancer cells xenografts; conditions: given after establishment of xenografts; cited from earlier work
[5] = system: Panc1 cells and human primary Akt2-amplified pancreatic tumour cell; conditions: cited from earlier work
[6] = system: AZD6244-resistant tumours; conditions: added to AZD6244; cited from earlier work
[7] = system: gemcitabine-resistant metastatic pancreatic cancer; conditions: gemcitabine-resistant metastatic pancreatic cancer patients, cited from earlier work
pancreatic cancer = conditions: standard of line chemotherapy; cited from earlier work

Cc1nc(NC(=O)N2CCC[C@H]2C(N)=O)sc1-c1csc(C(C)(C)C)n1 [A66]
pS473 and pT308Akt levels (pAkt): significantly inhibited | RTK-driven (EGF) short-term phosphorylation of Akt (pAkt; EGF stimulation): inhibited | re-activation of pAkt upon long-term PI3K inhibition (pAkt; serum stimulation, time course up to 48 h): prevents this re-activation of pAkt | number of serum-induced phosphopeptides changed ([1]; Capan-1, 10 min): 449 | number of serum-induced phosphopeptides changed ([1]; Capan-1, 24 h): 404

O=C1NC(=O)/C(=C/c2ccc(-c3ccc(F)cc3O)o2)S1 [AS-252424]
pS473 and pT308Akt levels (pAkt): significantly inhibited | GPCR-driven (LPA) short-term phosphorylation of Akt (pAkt; LPA stimulation): inhibited | number of serum-induced phosphopeptides changed ([1]; Capan-1, 10 min): 504 | number of serum-induced phosphopeptides changed ([1]; Capan-1, 24 h): 404

Cn1cnc2c(F)c(Nc3ccc(Br)cc3Cl)c(C(=O)NOCCO)cc21 [AZD6244]
tumour progression / tumour size [2]: progressive disease | murine lethality / survival [2]: nearly no effect

Nc1cc(C(F)(F)F)c(-c2cc(N3CCOCC3)nc(N3CCOCC3)n2)cn1 [BKM120]
tumour progression / tumour size [2]: progressive disease | murine lethality / survival [2]: nearly no effect

CS(=O)(=O)N1CCN(Cc2cc3nc(-c4cccc5[nH]ncc45)nc(N4CCOCC4)c3s2)CC1 [GDC-0941]
disease status (KPC pancreatic tumour; 14 days after established tumours detection): stable disease | pancreatic tumour growth (KPC pancreatic tumour; KPC mice, 14 days): efficiently prevent | response of orthotopic patient-derived PDAC [3]: responded the same way | tumour volumes [4]: did not impair tumour volumes

O=c1cc(N2CCOCC2)oc2c(-c3ccccc3)cccc12 [LY-294002]
number of serum-induced phosphopeptides changed ([1]; Capan-1, 10 min): 427 | number of serum-induced phosphopeptides changed ([1]; Capan-1, 24 h): 258

Cn1c(=O)n(-c2ccc(C(C)(C)C#N)cc2)c2c3cc(-c4cnc5ccccc5c4)ccc3ncc21 [NVP-BEZ235]
combination effect with panobinostat [5]: additive effect | tumour cell growth [5]: reduced | prevention of resistance to AZD6244 [6]: able to prevent this process

CO[C@H]1C[C@@H]2CC[C@@H](C)[C@@](O)(O2)C(=O)C(=O)N2CCCC[C@H]2C(=O)O[C@H]([C@H](C)C[C@@H]2CC[C@@H](OCCO)[C@H](OC)C2)CC(=O)[C@H](C)/C=C(\C)[C@@H](O)[C@@H](OC)C(=O)[C@H](C)C[C@H](C)/C=C/C=C/C=C/1C [RAD001]
clinical / therapeutic activity [7]: only a minimal clinical action | tolerability [7]: well tolerated | clinical / therapeutic activity ([7]; listed as Everolimus): failed to demonstrate the therapeutic activity

CO[C@H]1C[C@@H]2CC[C@@H](C)[C@@](O)(O2)C(=O)C(=O)N2CCCC[C@H]2C(=O)O[C@H]([C@H](C)C[C@@H]2CC[C@@H](O)[C@H](OC)C2)CC(=O)[C@H](C)/C=C(\C)[C@@H](O)[C@@H](OC)C(=O)[C@H](C)C[C@H](C)/C=C/C=C/C=C/1C [Sirolimus]
tolerability [7]: well tolerated

Cc1cc(C(C)Nc2ccccc2)c2nc(N3CCOCC3)cc(=O)n2c1 (stereo not shown) [TGX-221]
pS473 and pT308Akt levels (pAkt): significantly inhibited | number of serum-induced phosphopeptides changed ([1]; Capan-1, 10 min): 436 | number of serum-induced phosphopeptides changed ([1]; Capan-1, 24 h): 437

CO[C@H]1C[C@@H]2CC[C@@H](C)[C@@](O)(O2)C(=O)C(=O)N2CCCC[C@H]2C(=O)O[C@H]([C@H](C)C[C@@H]2CC[C@@H](OC(=O)C(C)(CO)CO)[C@H](OC)C2)CC(=O)[C@H](C)/C=C(\C)[C@@H](O)[C@@H](OC)C(=O)[C@H](C)C[C@H](C)/C=C/C=C/C=C/1C [Temsirolimus]
clinical / therapeutic activity [7]: failed to demonstrate the therapeutic activity

Nc1ccn([C@@H]2O[C@H](CO)[C@@H](O)C2(F)F)c(=O)n1 [gemcitabine]
increase of patient survival (pancreatic cancer): only a few weeks
